In patent US12064427B2, “Pharmaceutical compositions comprising (S)-4-(4-(4-(((2-(2,6-dioxopiperidin-3-yl)-1-oxoisoindolin-4-yl)oxy)methyl)benzyl)piperazin-1-yl)-3-fluorobenzonitrile and methods of using the same” (Celgene Corporation, priority 2019, dated 2024):

Assays:
α1 adrenergic receptor = α1 adrenergic receptor binding at 10 μM ([3H]prazosin, cerebral cortex membranes); set-up: species or system rat; conditions: inhibition of control radioligand binding
Experimental: (§1) α1 Adrenergic and Dopamine D2 Receptors. Methods: Binding and functional assays for al adrenergic and dopamine D2 receptors were performed by Eurofins Cerep according to their methods.
α1 Adrenergic Receptor. Binding at 10 μM. The binding assay evaluated the affinity of test article for the non-selective al adrenergic receptor in rat cerebral cortex. Membrane homogenates of cerebral cortex were incubated in duplicate for 60 minutes at room temperature with 0.25 nM [^3H]prazosin in the absence or presence of test articles at 10 μM. After the incubation period, samples were filtered through glass fiber filters, the filters dried and then counted for radioactivity using a scintillation counter. Results are expressed as mean percent inhibition of control radioligand binding.

NCI-H929 = assay: Cell proliferation assay (CellTitre-Glo, 120 h); conditions: Homo sapiens, NCI-H929, 120 h, read-out: NCI-H929 120 h IC50
Experimental: (§2) All cell lines were kept in log phase, and cell density and viability were monitored by trypan blue exclusion using the Vi-cell XR cell viability analyzer (Beckman Coulter, Brea, CA).
(§3) A 10-point dose response starting at 10 μM with a 1:3 dilution was printed in duplicate by acoustic dispense using the EDC ATS-100 platform. Alternatively, the 10-point dose response starting at 10 μM with a 1:10 dilution, or starting at 100 nM with a 1:3 dilutions were used.
(§4) Hematological cell lines were dispensed into compound plates by a Multidrop Combi Reagent Dispenser (Thermo Scientific, Waltham, MA) at a concentration of 0.1×10^6 cells per mL in a 50 μL total volume. At 120 h, 25 μL per well of CTG was dispensed by a Multidrop Combi Reagent Dispenser and adenosine triphosphate (ATP) release by viable cells was measured as relative luminescence units after 30 minutes using the Envision platform.
(§5) Proliferation was assessed using the CellTitre-Glo® assay.

[1] = Two-stage dissolution (precipitation risk) of 2 mg BIC; type: physicochemical; conditions: based on two-stage dissolution findings
Experimental: The precipitation risk of prototype BIC formulations were studied by a two-stage method (Stage 1 under sink condition and Stage 2 under non-sink condition) for high strength (2 mg).
A two-stage dissolution study was carried out on prototype formulations, wherein the dissolution medium for Stage 1 was 0.01N HCl. […] Based on the two-stage dissolution findings the precipitation risk is considered low for Compound 1.

NCI-H929-1051 = assay: Cell proliferation assay (CellTitre-Glo, 120 h); conditions: Homo sapiens, read-out: NCI-H929.1051 120 h IC50
Experimental: as §2, §3, §4, §5

OPM2-P10 = assay: Cell proliferation assay (CellTitre-Glo, 120 h); conditions: Homo sapiens, read-out: OPM-2.P10 120 h IC50
Experimental: as §2, §3, §4, §5

MM cell lines = assay: Cell proliferation assay (CellTitre-Glo, 120 h), four lines together; conditions: Homo sapiens, read-out: antiproliferative IC50 values
Experimental: as §2, §3, §4, §5

OPM2 = assay: Cell proliferation assay (CellTitre-Glo, 120 h); conditions: Homo sapiens, OPM-2, 120 h, read-out: OPM-2 120 h IC50
Experimental: as §2, §3, §4, §5

dopamine D2S receptor = target: T1, dopamine D2S receptor (Homo sapiens, UniProt P14416); assay: Dopamine D2S receptor binding at 10 μM (transfected HEK-293 membranes); conditions: inhibition of control radioligand binding
T1 construct: host or cells: HEK-293
Experimental: as §1
Dopamine D2 Receptor. Binding at 10 μM. The binding assay evaluated the affinity of test articles for the dopamine D2 receptor in transfected human embryonic kidney (HEK)-293 cells. For determining the binding in the D2S receptor assay, test article was incubated with 0.3 nM [^3H] methylspiperone or 1 nM [^3H] 7-hydroxy-2-N,N-dipropylaminotetralin (7-OH-DPAT). [^3H] Methylspiperone at 0.3 nM also was used as control ligand in the D2L binding assay. Cell membrane homogenates were incubated in duplicate at room temperature for 60 minutes with ligand in the absence or presence of test articles at 10 μM. After the incubation period, samples were filtered through glass fiber filters, the filters dried and then counted for radioactivity using a scintillation counter. Results are expressed as mean percent inhibition of control radioligand binding.

[2] = Binary drug-excipient compatibility study; conditions: binary mixture with Compound 1, open dish, 50° C./75% RH, 3 and 6 weeks vs 5° C. control
Experimental: A binary drug-excipient compatibility study was conducted to identify suitable excipients for capsule formulation. These binary mixtures were studied in open dish and subjected to 5° C. (control) and 50° C./75% RH conditions for 3 and 6 weeks respectively. Selective samples have been tested for chemical (impurities/degradants) and racemization (loss of chiral purity).

[3] = acidifiers evaluated; cited from earlier work
Water activity testing = type: physicochemical
Description: Water activity is a measure of how tightly bound the water is within a substance. To measure water activity, a sample is placed in a sealed vessel which is allowed to reach equilibrium. The final relative humidity (RH) in the vessel is reported as a fraction called “Aw”. Pure water has an Aw of 1.00. […] HygroLab 3 Bench Top Indicator was used to determine water activity testing. Before testing the samples, the equipment is calibrated at different relative humidity levels using RH standards (0% RH, 35% RH, and 80% RH) and at different temperatures to ensure accuracy of the probes. A known amount of sample is sealed inside the sample cell by twisting the cap in downward direction. The starting temperature is recorded before beginning the test. When the change in temperature before and after the test is not more than 0.5° C. record Aw.

T1 sequence (P14416 1-414 isoform P14416-2): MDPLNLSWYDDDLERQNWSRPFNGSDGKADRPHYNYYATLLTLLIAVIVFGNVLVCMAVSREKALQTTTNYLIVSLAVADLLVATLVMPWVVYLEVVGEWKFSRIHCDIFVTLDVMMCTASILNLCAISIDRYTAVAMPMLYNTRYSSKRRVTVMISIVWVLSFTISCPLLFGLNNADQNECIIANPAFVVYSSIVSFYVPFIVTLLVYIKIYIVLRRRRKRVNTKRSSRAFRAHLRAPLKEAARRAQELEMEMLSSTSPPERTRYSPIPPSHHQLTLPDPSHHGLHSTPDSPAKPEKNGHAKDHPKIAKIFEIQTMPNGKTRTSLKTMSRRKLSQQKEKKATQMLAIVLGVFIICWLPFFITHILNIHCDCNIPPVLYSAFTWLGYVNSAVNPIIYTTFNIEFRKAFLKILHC

O=C1CCC(N2Cc3c(OCc4ccc(CN5CCN(c6ccc(F)cc6F)CC5)cc4)cccc3C2=O)C(=O)N1 (racemic) [Compound A, 3-(4-((4-((4-(2,4-difluorophenyl)piperazin-1-yl)methyl)benzyl)oxy)-1-oxoisoindolin-2-yl)piperidine-2,6-dione]
Adrenergic α1 % Inh. (@10 μM) (α1 adrenergic receptor): 102%

N#Cc1ccc(N2CCN(Cc3ccc(COc4cccc5c4CN([C@H]4CCC(=O)NC4=O)C5=O)cc3)CC2)c(F)c1 [Compound 1, (S)-4-(4-(4-(((2-(2,6-dioxopiperidin-3-yl)-1-oxoisoindolin-4-yl)oxy)methyl)benzyl)piperazin-1-yl)-3-fluorobenzonitrile]
IC50 (NCI-H929): 0.07 nM | precipitation risk [1]: low | IC50 (NCI-H929-1051): 1 nM | IC50 (OPM2-P10): 4.3 nM | IC50 (MM cell lines): 0.07 to 4.3 nM | IC50 (OPM2): 0.07 nM | Dopamine D2S % Inh. (@10 μM) (dopamine D2S receptor): 55/52

O=C(O)CCC(=O)O [succinic acid]
compatibility of excipient with the drug substance (chemical degradation, chiral purity) [2]: chemically incompatible | pKa [3]: 4.18

CCCCCCCCCCCCCCCCCC(=O)O [Stearic Acid]
compatibility of excipient with the drug substance (chemical degradation, chiral purity) [2]: chemically compatible

N#Cc1ccc(N2CCN(Cc3ccc(COc4cccc5c4CN([C@H]4CCC(=O)NC4=O)C5=O)cc3)CC2)c(F)c1 [Form K of Compound 1, (S)-4-(4-(4-(((2-(2,6-dioxopiperidin-3-yl)-1-oxoisoindolin-4-yl)oxy)methyl)benzyl)piperazin-1-yl)-3-fluorobenzonitrile]
RH at which Form K converts to an anhydrous form (Water activity testing): < 20%

OC[C@@H](O)[C@@H](O)[C@H](O)[C@H](O)CO [Mannitol]
compatibility of excipient with the drug substance (chemical degradation, chiral purity) [2]: compatible, with some hydrolytic chemical degradation

O=C(O)/C=C/C(=O)O [fumaric acid]
compatibility of excipient with the drug substance (chemical degradation, chiral purity) [2]: more compatible acidifier

OC[C@H]1O[C@@H](O[C@H]2[C@H](O)[C@@H](O)C(O)O[C@@H]2CO)[C@H](O)[C@@H](O)[C@H]1O (stereo partly shown) [Lactose]
compatibility of excipient with the drug substance (chemical degradation, chiral purity) [2]: compatible with little decrease in chiral purity

CCCCCCCCCCCCOS(=O)(=O)[O-].[Na+] [sodium lauryl sulfate (SLS), sodium lauryl sulfate]
compatibility of excipient with the drug substance (chemical degradation, chiral purity) [2]: loss of chiral purity and increase in chemical degradation chiefly by hydrolysis
